“Also recorded” adds a separate entry of the source.
How the values were obtained:
[1] = system: zebrafish; assay: Developmental toxicity (DevTox) assay; format: in vivo, Danio rerio; conditions: for Developmental toxicity outcome / EC50: scored 6 dpf; for DevTox assay phenotype: Table 5 summary, this study (some rows also list literature); for EC50: Hill fit
Procedure: (§1) At 0 dpf, zebrafish embryos were bleached as previously described ([Tal et al. 2017]). A single embryo at the dome-to-epiboly stages ([Kimmel et al. 1995]) was placed into each individual well of a 96-well plate containing a 40-μm nylon mesh filter (Millipore, Catalog No. MANMN4010) with 400μL of 10% Hanks’ balanced salt solution (HBSS) per well. Filter inserts containing zebrafish embryos were transferred to 96-well culture trays (Millipore, Catalog No. MAMCS9610) containing 250μL of 10% HBSS ([Westerfield 2007]) and 1μL of 250× working solutions per well. A final concentration of 0.4% DMSO was used for all exposure groups and as a vehicle control. In the case of GenX Free Acid in Study 2 (Figure 1), DI water was used as a vehicle control. Daily, from 1–5 dpf, plates underwent 100% media changes to refresh chemical dosing solutions by blotting (Brandel; Catalog No. FPXLR-196) and transferring mesh inserts containing zebrafish to new bottom plates (Millipore; Catalog No. MAMCS9610). To minimize evaporation, plates were sealed (Biorad; Catalog No. MSA5001) and wrapped with parafilm. Plates were maintained on a 14 h:10 h light cycle at 26.0°C and scored daily for death, malformations, hatching, and swim bladder inflation. At 6 dpf, plates were evaluated by two independent observers and DevTox or DNT assays were performed or media and tissue were collected for analytical chemistry analyses as described below.
In Study 1 (Figure 1), zebrafish were exposed, as described in the “Chemical Exposures” section, to 0.04, 0.1, 0.4, 1.1, 3.1, 9.3, 27.2, or 80.0μM PFOS, PFOA, PFHxS, PFHxA, or ADONA, or 0.4% DMSO. Six 96-well plates were tested with a single chemical concentration included on each microtiter plate. Subsequently, as part of Study 1, zebrafish were exposed to 0.04, 0.1, 0.4, 1.1, 3.1, 9.3, 27.2, or 80.0μM PFESA1, or 0.4% DMSO. In Study 2, GenX Free Acid diluted in DI water was tested by exposing zebrafish to 0.04, 0.1, 0.4, 1.1, 3.1, 9.3, 27.2, or 80.0μM of the compound or DI water. […] Zebrafish were exposed to 1.7, 3.1, 5.5, 9.8, 17.6, 31.4, 56.0, or 100.0μM of PFBS, PFHxS, PFHpS, or PFOS or 0.4% DMSO. Subsequently, zebrafish were exposed to 1.7, 3.1, 5.5, 9.8, 17.6, 31.4, 56.0, or 100.0μM PFPeS, or 0.4% DMSO. Chlorpyrifos was used as positive control for malformations ( 8.0μM ) and lethality ( 80.0μM ) ([Padilla et al. 2012]; [Tal et al. 2017]). To conduct DevTox assay assessments, at 6 dpf, two independent observers evaluated zebrafish larvae for survival, hatching, swim bladder inflation, and malformations, including curved body axis, shortened trunk, pericardial edema, yolk sac edema, necrotic yolk sac, pectoral fin abnormalities and head/jaw abnormalities. Directly after assessments, data were reviewed and, in the case of discrepancies, consensus calls were reached. Toxicity values were assigned to descriptive data (i.e., normal=0 , abnormal=20 , severely abnormal=50 , and dead=100 ), modified from a previously described approach ([Padilla et al. 2012]). Briefly, animals with a single malformation were scored as abnormal, whereas animals with ≥2 malformations were scored as severely abnormal.
For the DevTox assay, a Kruskal-Wallace nonparametric one-way analysis of variance (ANOVA) with a Dunn’s multiple comparison test was used to detect differences between exposure groups (* p<0.05 , ** p<0.0001 ) and LOEC values were determined. If a test for linear trend was significant ( p<0.05 ), with developmental toxicity observed at the highest concentration tested, nonlinear regression was performed with a Hill slope curve fitting for half maximal effective concentration ( EC50 ) value determinations.

[2] = system: zebrafish; assay: Developmental neurotoxicity (DNT) assay, light/dark locomotor behavior test; format: in vivo, Danio rerio; conditions: for Developmental neurotoxicity / locomotor activity outcome / Concentration causing hyperactivity in D1 period / Concentration causing hyperactivity in L1 period / Concentration causing hyperactivity in L2 period / Concentration causing hyperactivity in D2 period: tested 6 dpf; for DNT assay phenotype: Table 5 summary, this study (some rows also list literature); for Concentration causing hyperactivity in D1 period: dark 1; for Concentration causing hyperactivity in D1 period / Concentration causing hyperactivity in L1 period / Concentration causing hyperactivity in L2 period / Concentration causing hyperactivity in D2 period: daily 0–5 dpf, vs 0.4% DMSO; for Concentration causing hyperactivity in L2 period: light 2; for Concentration causing hyperactivity in D2 period: dark 2
Procedure: as §1
To increase the likelihood of observing behavioral effects in morphologically normal larvae, the highest concentration evaluated in the DNT assay was the lowest observed effect concentration (LOEC) determined in DevTox assay. Zebrafish were exposed in parallel to 4.4, 7.9, 14.0, 25.1, 44.8, or 80.0μM PFOA, PFHxS, PFHxA, or ADONA or 0.2, 0.3, 0.6, 1.0, 1.8, or 3.1μM PFOS or 0.4% DMSO. Subsequently, as part of Study 1, exposure to 4.4, 7.9, 14.0, 25.1, 44.8, or 80.0μM PFESA1, or 0.4% DMSO was evaluated. In Study 2, zebrafish were exposed to 4.4, 7.9, 14.0, 25.1, 44.8, or 80.0μM GenX Free Acid, or DI water. In Study 3, to increase the likelihood of observing malformations with shorter-chain compounds at multiple test concentrations, the highest concentration evaluated was 100.0μM . Zebrafish were exposed to 5.5, 9.8, 17.6, 31.4, 56.0, or 100.0μM PFBS; 3.1, 5.5, 9.8, 17.6, 31.4, or 56.0μM PFHxS; 1.7, 3.1, 5.5, 9.8, 17.6, or 31.4μM PFHpS; or 0.5, 1.0, 1.7, 3.1, 5.5, or 9.8μM PFOS, or 0.4% DMSO. Subsequently, as part of Study 3, zebrafish were exposed to 3.1, 5.5, 9.8, 17.6, 31.4, or 56.0μM PFPeS, or 0.4% DMSO. Chemical exposures and assessments were performed daily, as described above. To evaluate swimming behavior in a light/dark behavior test, microtiter plates were placed in a dark, temperature-controlled behavior testing room set to 26.0°C for at least 2 h prior to testing. At the time of testing, microtiter plates were placed on a Noldus tracking apparatus. Locomotor activity was recorded (30 frames/s) for a total of 60 min consisting of a 20-min dark acclimation period (0 lux) that was not analyzed followed by a 40-min testing period consisting of a 20-min light period (5.0 lux) and 20-min dark period (0 lux). Videos were analyzed using Ethovision software (version 3.1; Noldus Information Technology) as previously described ([Jarema et al. 2015]). Locomotor activity was collected for each individual fish for each 2-min period (minimum distance moved, set to 0.135cm ). Thus, for a 40-min test, 20 data points were collected per larvae. […] Four additional criteria for inclusion of individual larvae were applied. One, all larvae that were identified as abnormal, severely abnormal, or dead were excluded. Two, larvae with uninflated swim bladders were removed from analyses. Three, individual larvae that moved <2cm in either […] dark period were removed.

[3] = Study 1, 0.04–80.0 μM daily 0–5 dpf, 0.4% DMSO
[4] = Study 1, 4.4–80.0 μM daily 0–5 dpf, 0.4% DMSO
[5] = Danio rerio, Study 1, 0.04–80.0 μM daily 0–5 dpf, 0.4% DMSO
[6] = Danio rerio, Study 3, 1.7–100.0 μM daily 0–5 dpf, 0.4% DMSO
[7] = Study 1, light 1 (first 10 min light)

Structure (SMILES)	Developmental toxicity outcome [1, 3]	DevTox assay phenotype [1]	Developmental neurotoxicity / locomotor activity outcome [2, 4]	DNT assay phenotype [2]	EC50 [1, 5] [µM]	EC50 [1, 6] [µM]	EC50 [1, 3] [µM]	EC50 ([1]; Study 3, 1.7–100.0 μM daily 0–5 dpf, 0.4% DMSO) [µM]	Concentration causing hyperactivity in D1 period ([2]; Study 1) [µM]	Concentration causing hyperactivity in L1 period [2, 7] [µM]	Concentration causing hyperactivity in L2 period ([2]; Study 1) [µM]	Concentration causing hyperactivity in D1 period ([2]; Study 3) [µM]	Concentration causing hyperactivity in D2 period ([2]; Study 3)	Concentration causing hyperactivity in L1 period ([2]; Study 3, light 1) [µM]	Concentration causing hyperactivity in L2 period ([2]; Study 3) [µM]	Developmental toxicity outcome ([1]; Study 2, 0.04–80.0 μM in DI water daily 0–5 dpf)	Developmental neurotoxicity / locomotor activity outcome ([2]; Study 2, 4.4–80.0 μM in DI water daily 0–5 dpf)	Concentration causing hyperactivity in D2 period ([2]; Study 1) [µM]
O=C(O)C(F)(F)C(F)(F)C(F)(F)C(F)(F)C(F)(F)C(F)(F)C(F)(F)F [PFOA, Perfluoro-n-octanoic acid]	did not cause concentration-dependent effects on survival or development; also recorded: negative	Negative	did not exhibit differences in locomotor activity; also recorded: negative	Negative														
O=S(=O)(O)C(F)(F)C(F)(F)OC(F)(C(F)(F)F)C(F)(F)OC(F)=C(F)F (centres unmarked) [PFESA1, Perfluoro-3,6-dioxa-4-methyl-7-octene-1-sulfonic acid]	did not cause concentration-dependent effects on survival or development; also recorded: failed to provoke developmental toxicity or developmental neurotoxicity; also recorded: negative	Negative^a	did not exhibit differences in locomotor activity; also recorded: failed to provoke developmental toxicity or developmental neurotoxicity; also recorded: negative	Negative^a														
O=C(O)C(F)(F)C(F)OC(F)(F)C(F)(F)C(F)(F)OC(F)(F)F (centres unmarked) [ADONA, 4,8-Dioxa-3H-perfluorononanoate]	did not cause concentration-dependent effects on survival or development; also recorded: failed to provoke developmental toxicity or developmental neurotoxicity; also recorded: negative	Negative^a	did not exhibit differences in locomotor activity; also recorded: failed to provoke developmental toxicity or developmental neurotoxicity; also recorded: negative	Negative^a														
O=S(=O)(O)C(F)(F)C(F)(F)C(F)(F)C(F)(F)C(F)(F)C(F)(F)C(F)(F)C(F)(F)F [PFOS, Perfluorooctanesulfonic acid]	failed swim bladder inflation and ventroflexion of the tail	Positive		Hyperactivity	7.5	28.2	7.54	28.2	0.6 to 1.8	1.0	0.6 to 1.8	1.0	no effect	1.7 to 3.1	1.7 to 3.1			
O=S(=O)(O)C(F)(F)C(F)(F)C(F)(F)C(F)(F)C(F)(F)C(F)(F)F [PFHxS, Perfluorohexanesulfonic acid]	same morphological phenotypes as PFOS	Positive		Hyperactivity^a	92.7	228				14.0 to 25.1	14.0	17.6	17.6 µM		17.6 to 31.4			
O=C(O)C(F)(OC(F)(F)C(F)(F)C(F)(F)F)C(F)(F)F (centres unmarked) [GenX Free Acid, Perfluoro-2-propoxypropanoic acid]		Negative^a		Negative^a												negative; also recorded: failed to provoke developmental toxicity or developmental neurotoxicity	negative; also recorded: failed to provoke developmental toxicity or developmental neurotoxicity	
O=C(O)C(F)(F)C(F)(F)C(F)(F)C(F)(F)C(F)(F)F [PFHxA, Perfluorohexanoic acid]	did not cause concentration-dependent effects on survival or development; also recorded: no observed developmental toxicity identified at the highest concentration tested	Negative	hyperactivity in the L2, D1, and D2 periods	Hyperactivity^a					14.0 to 25.1		25.1							14.0 to 25.1
